Results reported in US4112217A, “Bis-hydrazones of daunomycin and adriamycin” (SRI International, priority 1977, dated 1978).
Counter-ions that a name gives are not always drawn. Like-named read-outs stand apart in the source and are kept apart here.

What was measured:
[1] = test system: Cultured L1210 Leukemia Cells; experiment: Inhibition of DNA synthesis in cultured lymphoid leukemia L1210 cells; type: cell-based; conditions: Mus musculus
Procedure: (§1) Biological testing data for compounds of this invention as the HCl salts, as well as for adriamycin and daunomycin, are presented in the table given below. The compounds were tested first in cultured lymphoid leukemia L1210 cells for inhibition of nucleic acid synthesis by previously reported procedures. The analogs were then tested against lymphocytic leukemia P388 implanted in mice, under the auspices of the NCI and according to its protocols which use the increased survival time of treated mice compared to controls as the measure of antitumor efficacy.
(§2) ^b Assay described in G. Tong, W. W. Lee, D. R. Black and D. W. Henry

[2] = test system: Cultured L1210 Leukemia Cells; experiment: Inhibition of RNA synthesis in cultured lymphoid leukemia L1210 cells; type: cell-based; conditions: Mus musculus
Procedure: as §1, §2

P388 Leukemia in Mice = experiment: Antitumor efficacy vs lymphocytic leukemia P388 implanted in mice (NCI protocol); type: in vivo, mice (murine)
Procedure: as §1
^c Ip P388 murine leukemia treated ip on QD1-9 and Q4D 5, 9, 13
schedules according to standard NCI protocols. Assay described in R. I.
Geran, N. H. Greenberg, M. M. MacDonald, A. M. Schumacker and B. J.
Abbott, Cancer Chemother. Rep., Part 3, 3 (No. 2), 9 (1972), Protocol
1,200. T/C = ratio of survival time of treated mice to that of untreated
controls times 100. Untreated controls survive about 9 days.

[3] = L1210, read-out: Inhibition of Synthesis of DNA, ED50
[4] = L1210, read-out: Inhibition of Synthesis of RNA, Ed50
[5] = Mus musculus, ip P388, treated ip, q4d 5,9,13, optimum dose 8 mg/kg, read-out: Antitumor Efficacy T/C
[6] = Mus musculus, P388, ip, read-out: Antitumor Efficacy T/C
[7] = cultured L1210 leukemia cells, DNA synthesis, read-out: Inhibition of Synthesis of DNA, ED50
[8] = cultured L1210 leukemia cells, RNA synthesis, read-out: Inhibition of Synthesis of RNA, Ed50
[9] = Mus musculus, P388, ip, ip P388, treated ip, qd 1-9, optimum dose 6.25 mg/kg, read-out: Antitumor Efficacy T/C
[10] = Mus musculus, P388, ip, ip P388, treated ip, q4d 5,9,13, optimum dose 25 mg/kg, read-out: Antitumor Efficacy T/C

COc1cccc2c1C(=O)c1c(O)c3c(c(O)c1C2=O)C[C@@](O)(C(=O)CO)C[C@@H]3O[C@H]1C[C@H](N)[C@H](O)[C@H](C)O1 [Adriamycin]
IC50 [1, 3]: 1.5 µM | IC50 [2, 4]: 0.67 µM | response vs control in vivo at 8 mg/kg (P388 Leukemia in Mice; [5]): 157% | response vs control in vivo at 1 mg/kg (P388 Leukemia in Mice; Mus musculus, ip P388, treated ip, qd 1-9, optimum dose 1.0 mg/kg, read-out: Antitumor Efficacy T/C): 195%

COc1cccc2c1C(=O)c1c(O)c3c(c(O)c1C2=O)C[C@@](O)(C(C)=O)C[C@@H]3O[C@H]1C[C@H](N)[C@H](O)[C@H](C)O1 [Daunomycin]
IC50 [1, 3]: 0.49 µM | IC50 [2, 4]: 0.39 µM | response vs control in vivo at 8 mg/kg (P388 Leukemia in Mice; [5]): 134% | response vs control in vivo at 0.5 mg/kg (P388 Leukemia in Mice; Mus musculus, ip P388, treated ip, qd 1-9, optimum dose 0.5 mg/kg, read-out: Antitumor Efficacy T/C): 166%

COc1cccc2c1C(=O)c1c(O)c3c(c(O)c1C2=O)C[C@@](O)(C(C)=NNC(=O)CCC(=O)NN=C(C)[C@]1(O)Cc2c(O)c4c(c(O)c2[C@@H](O[C@H]2C[C@H](N)[C@H](O)[C@H](C)O2)C1)C(=O)c1c(OC)cccc1C4=O)C[C@@H]3O[C@H]1C[C@H](N)[C@H](O)[C@H](C)O1 [I, Bis(daunomycin) Succinylhydrazone Dihydrochloride]
IC50 [1, 3]: 13 µM | IC50 [2, 4]: 3.4 µM | response vs control in vivo at 6.25 mg/kg (P388 Leukemia in Mice; [6]): 283% | response vs control in vivo at 12.5 mg/kg (P388 Leukemia in Mice; [6]): 307% | response vs control in vivo at 20 mg/kg (P388 Leukemia in Mice; [6]): 170% | treated mice survived until sacrifice at 30 days (P388 Leukemia in Mice; qd 1-9, 6.25 mg/kg, sacrifice at 30 days): Three out of six | treated mice survived until sacrifice at 45 days (P388 Leukemia in Mice; qd 1-9, 12.5 mg/kg, sacrifice at 45 days): Two out of six

COc1cccc2c1C(=O)c1c(O)c3c(c(O)c1C2=O)C[C@@](O)(C(C)=NNC(=O)CCCC(=O)NN=C(C)[C@]1(O)Cc2c(O)c4c(c(O)c2[C@@H](O[C@H]2C[C@H](N)[C@H](O)[C@H](C)O2)C1)C(=O)c1c(OC)cccc1C4=O)C[C@@H]3O[C@H]1C[C@H](N)[C@H](O)[C@H](C)O1 [II, Bis(daunomycin) Glutarylhydrazone Dihydrochloride]
IC50 [1, 7]: 4.5 µM | IC50 [2, 8]: 3.6 µM | response vs control in vivo at 1.56 mg/kg (P388 Leukemia in Mice; Mus musculus, P388, ip, ip P388, treated ip, qd 1-9, optimum dose 1.56 mg/kg, read-out: Antitumor Efficacy T/C): 188% | response vs control in vivo at 3.12 mg/kg (P388 Leukemia in Mice; Mus musculus, P388, ip, ip P388, treated ip, qd 1-9, optimum dose 3.12 mg/kg, read-out: Antitumor Efficacy T/C): 149%

COc1cccc2c1C(=O)c1c(O)c3c(c(O)c1C2=O)C[C@@](O)(C(C)=NNC(=O)CCCCC(=O)NN=C(C)[C@]1(O)Cc2c(O)c4c(c(O)c2[C@@H](O[C@H]2C[C@H](N)[C@H](O)[C@H](C)O2)C1)C(=O)c1c(OC)cccc1C4=O)C[C@@H]3O[C@H]1C[C@H](N)[C@H](O)[C@H](C)O1 [III, Bis(daunomycin) Adipylhydrazone Dihydrochloride]
IC50 [1, 7]: 8.9 µM | IC50 [2, 8]: 3.6 µM | response vs control in vivo at 37.5 mg/kg (P388 Leukemia in Mice; Mus musculus, P388, ip, ip P388, treated ip, q4d 5,9,13, optimum dose 37.5 mg/kg, read-out: Antitumor Efficacy T/C): 196% | response vs control in vivo at 6.25 mg/kg (P388 Leukemia in Mice; [9]): 281%

COc1cccc2c1C(=O)c1c(O)c3c(c(O)c1C2=O)C[C@@](O)(C(C)=NNC(=O)CCCCCCC(=O)NN=C(C)[C@]1(O)Cc2c(O)c4c(c(O)c2[C@@H](O[C@H]2C[C@H](N)[C@H](O)[C@H](C)O2)C1)C(=O)c1c(OC)cccc1C4=O)C[C@@H]3O[C@H]1C[C@H](N)[C@H](O)[C@H](C)O1 [IV, Bis(daunomycin) Suberylhydrazone Dihydrochloride]
IC50 [1, 7]: 4.9 µM | IC50 [2, 8]: 2.4 µM | response vs control in vivo at 25 mg/kg (P388 Leukemia in Mice; [10]): 178% | response vs control in vivo at 8 mg/kg (P388 Leukemia in Mice; Mus musculus, P388, ip, ip P388, treated ip, qd 1-9, optimum dose 8 mg/kg, read-out: Antitumor Efficacy T/C): 245%

COc1cccc2c1C(=O)c1c(O)c3c(c(O)c1C2=O)C[C@@](O)(C(C)=NNC(=O)C(=O)NN=C(C)[C@]1(O)Cc2c(O)c4c(c(O)c2[C@@H](O[C@H]2C[C@H](N)[C@H](O)[C@H](C)O2)C1)C(=O)c1c(OC)cccc1C4=O)C[C@@H]3O[C@H]1C[C@H](N)[C@H](O)[C@H](C)O1 [IX, Bis-(Daunomycin) Oxalylhydrazone Dihydrochloride]
IC50 [1, 7]: 4.3 µM | IC50 [2, 8]: 2.3 µM | response vs control in vivo at 25 mg/kg (P388 Leukemia in Mice; [10]): 160%

COc1cccc2c1C(=O)c1c(O)c3c(c(O)c1C2=O)C[C@@](O)(C(C)=NNC(=O)CCCCCCCCC(=O)NN=C(C)[C@]1(O)Cc2c(O)c4c(c(O)c2[C@@H](O[C@H]2C[C@H](N)[C@H](O)[C@H](C)O2)C1)C(=O)c1c(OC)cccc1C4=O)C[C@@H]3O[C@H]1C[C@H](N)[C@H](O)[C@H](C)O1 [V, Bis(Daunomycin) Sebacylhydrazone Dihydrochloride]
IC50 [1, 3]: 10 µM | IC50 [2, 4]: 1 µM | response vs control in vivo at 12.5 mg/kg (P388 Leukemia in Mice; [6]): 221% | response vs control in vivo at 50 mg/kg (P388 Leukemia in Mice; [6]): 163%

COc1cccc2c1C(=O)c1c(O)c3c(c(O)c1C2=O)C[C@@](O)(C(C)=NNC(=O)CCC(=O)NN=C(C)[C@]1(O)Cc2c(O)c4c(c(O)c2[C@@H](O[C@H]2C[C@H](N(C)C)[C@H](O)[C@H](C)O2)C1)C(=O)c1c(OC)cccc1C4=O)C[C@@H]3O[C@H]1C[C@H](N(C)C)[C@H](O)[C@H](C)O1 [VI, Bis(N,N-dimethyldaunomycin) Succinylhydrazone Dihydrochloride]
IC50 [1, 7]: 19 µM | IC50 [2, 8]: 3 µM | response vs control in vivo at 25 mg/kg (P388 Leukemia in Mice; [10]): 158% | response vs control in vivo at 4 mg/kg (P388 Leukemia in Mice; Mus musculus, P388, ip, ip P388, treated ip, qd 1-9, optimum dose 4 mg/kg, read-out: Antitumor Efficacy T/C): 178%

COc1cccc2c1C(=O)c1c(O)c3c(c(O)c1C2=O)C[C@@](O)(C(CO)=NNC(=O)CCC(=O)NN=C(CO)[C@]1(O)Cc2c(O)c4c(c(O)c2[C@@H](O[C@H]2C[C@H](N)[C@H](O)[C@H](C)O2)C1)C(=O)c1c(OC)cccc1C4=O)C[C@@H]3O[C@H]1C[C@H](N)[C@H](O)[C@H](C)O1 [VII, Bis(adriamycin) Succinylhydrazone Dihydrochloride]
IC50 [1, 7]: 13.3 µM | IC50 [2, 8]: 3.1 µM | response vs control in vivo at 18.8 mg/kg (P388 Leukemia in Mice; Mus musculus, P388, ip, ip P388, treated ip, q4d 5,9,13, optimum dose 18.8 mg/kg, read-out: Antitumor Efficacy T/C): 160% | response vs control in vivo at 6.25 mg/kg (P388 Leukemia in Mice; [9]): 309%

COc1cccc2c1C(=O)c1c(O)c3c(c(O)c1C2=O)C[C@@](O)(C(C)=NNC(=O)CC(=O)NN=C(C)[C@]1(O)Cc2c(O)c4c(c(O)c2[C@@H](O[C@H]2C[C@H](N)[C@H](O)[C@H](C)O2)C1)C(=O)c1c(OC)cccc1C4=O)C[C@@H]3O[C@H]1C[C@H](N)[C@H](O)[C@H](C)O1 [VIII, Bis(daunomycin) Malonylhydrazone Dihydrochloride]
IC50 [1, 7]: 14.1 µM | IC50 [2, 8]: 7.4 µM | response vs control in vivo at 6.25 mg/kg (P388 Leukemia in Mice; [9]): 169% | Antitumor Efficacy (in words) (P388 Leukemia in Mice; ip P388, treated ip, q4d 5,9,13, dose not given): inactive

COc1cccc2c1C(=O)c1c(O)c3c(c(O)c1C2=O)C[C@@](O)(C(C)=NNC(=O)CCCCCC(=O)NN=C(C)[C@]1(O)Cc2c(O)c4c(c(O)c2[C@@H](O[C@H]2C[C@H](N)[C@H](O)[C@H](C)O2)C1)C(=O)c1c(OC)cccc1C4=O)C[C@@H]3O[C@H]1C[C@H](N)[C@H](O)[C@H](C)O1 [X, Bis-(daunomycin) Pimelylhydrazone Dihydrochloride]
IC50 [1, 3]: 2 µM | IC50 [2, 4]: 1.3 µM | response vs control in vivo at 25 mg/kg (P388 Leukemia in Mice; [6]): 160%
